Results on 5 compounds are retold here after US20210283146A1, “COMPOSITION CONTAINING A 7BETA-HYDROXYCHOLESTEROL AND A LIPID VEHICLE, AND ITS USE IN THE TREATMENT OF NEOPLASTIC PATHOLOGIES” (priority 2018, published 2021).

The test system of one data set is GBM. To be noted: cited from earlier work.
The nature of data set [1]: Analysis of BIM2b in the brains of mice treated per os with BIM2b PO (HPTLC). Format: in vivo, mouse. The following applies: for Compound BIM2b (μg/g of brain): healthy mice, BIM2b PO per os. The procedure: The mouse brains dried and stored invididually in cryotubes at […] in liquid nitrogen are left to return to ambient temperature. Each brain is weighed and put in the Potter; 4 ml of 0.74% of cold KCl is added and the rest of the procedure takes place on a bed of ice. Each brain is ground 6 times at 1000 rev/min, each cycle comprising 5 minutes of grinding and 5 minutes of rest. The oxysterols are extracted according to the Folch procedure described above (II.3.). The lipid residue is then subjected to adsorption chromatography on a silica column.
The silica (8 g) is prepared in 40 ml of the hexane:ether mixture (diethyl-oxide (3:7, v/v) and then poured into the appropriate columns. The height of the silica bed is 18 cm and its volume is 15 ml.
A suitable quantity of mouse brain extract is dissolved in 1 ml of the first eluent system and deposited on the silica bed. Elution takes place in 4 steps in order to concentrate the fractions containing the oxysterols and remove as far as possible the lipids contaminating the mouse brain, in particular cholesterol.
The groups of fractions are evaporated to dryness, dissolved in acetone and the appropriate volumes are subjected to HPTLC chromatography.
The treatment of the healthy mice per os with BIM2b PO and the provenance of the brains are described in Example 4.
The compound BIM2b and its metabolites in the brains were separated, detected and quantified by HPTLC as described in the Methods section.

Data set [2] concerns beagle dogs. The data set is described as follows: Study of tolerance of BIM2b PO in healthy dogs.
In data set [3] the test system is wild-type mice. To be noted: mouse, in vivo.
Experimental: (§1) The composition from Example 2 was administered orally (by tube) to wild-type mice at a rate of 1.5 mg (50 μl of BIM2 PO) per animal, twice a day, 5 days out of 7 with a maximum duration of treatment of 21 days.
(§2) In the treated group, 2 mice were sacrificed after 18 days and 3 mice were sacrificed after 21 days. In the control group, 3 mice were sacrificed after 21 days.
(§3) The samples of internal organs (stomach, alimentary canal, liver, kidney, lung, heart) were immersed in 4% formaldehyde for 72 h and stored at 4° C., and then embedded in paraffin. The samples underwent macroscopic analysis before and after thinning.
(§4) Histological examination of the internal organs fixed with formaldehyde and toxicological quantifications were carried out on sections stained with haematoxylin-eosin-saffron according to a 4-level evaluation system complying with the nomenclature (3).
(§5) All the sections were examined for possible signs of cellular alteration, degeneration, necrosis, inflammation, fibrosis etc.
Data set [4] deals with wild-type mice. The data set is described as follows: Investigation of toxicity of BIM2b PO in healthy mice.
Experimental: as §1, §2, §3, §4, §5
For data set [5] the following is noted: in vivo. Here is the method: The GBM tumour was obtained by necropsy of a dog with glioblastoma, which was treated by the oral route with BIM2b PO and which lived with a good quality of life for 8 months. Necropsy was carried out 21 days after stopping the treatment with BIM2b PO. The tumour was fixed in formol mainly for histopathology analysis and a remaining fragment was analysed for quantification of BIM2b.
The fragments of dog brains, stored individually in cryotubes at +4° C. in a bath of formol, are dried on sopalin paper before they are weighed and put in the Potter. Just as for extraction of the mouse brains, each fragment was extracted after adding 4 ml of cold 0.74% KCl. The procedures for homogenization and extraction are the same as was described for the mouse brains in the Methods section.
Dry lipid extract of the dog GBM tumour fragment was thus obtained and was chromatographed sequentially on a SEP PAK Classic Silica cartridge; then on SEP PAK Plus C18 (with eluent A=5 mM of ammonium acetate/ultrapure water and B=5 mM of ammonium acetate/MetOH).
The compound BIM2b and its metabolites in the tumour are separated, detected and quantified by HPTLC as described in Section II) Methods.

The test system of the next data set is spontaneous gliomas. The data set is described as follows: Anti-GBM efficacy of BIM2b PO by the oral route in dogs with spontaneous gliomas. Format: in vivo. The following applies: oral treatment; mean survival of a dog with GBM 2-3 months.
Data set [6] concerns beagle dogs. The following applies: dog, in vivo.

Experimental for spontaneous gliomas: 9 dogs with spontaneous gliomas diagnosed by imagery were included in the study.
The condition and the tumour volume are evaluated by MRI.
On day D0 (1st administration), the GBM dog subject is examined clinically and a blood sample is collected for analysis of the biochemical parameters. On D15, an electrocardiogram is recorded and a blood sample is taken.
Electrocardiograms, blood samples and MRI are carried out on D42, D63, D84 and D105, then 3 months and 6 months after stopping the treatment.
The tumour response is evaluated by MRI based on the RECIST criteria (Response Evaluation Criteria in Solid Tumours). These criteria define the tumoral response as follows: • progression is an increase in size of the largest axis of the tumour of more than 20% relative to the preceding MRI; • regression is defined by a decrease in the size of the largest axis of the tumour of more than 30% relative to the preceding MRI; • stability is defined by a change in the size of the tumour between a decrease of less than 30% and an increase of less than 20%.

As to `N.N.[Cl][Pt][Cl]` [cisplatin], the “median survival for patients with GBM” value in the data set on GBM is listed as “do not improve the median survival”.

With `CC(=O)O[C@H]1C=C2CC(OC(=O)C3COC(C)(C)O3)CC[C@]2(C)C2CC[C@@]3(C)C(CCC3[C@H](C)CCCC(C)C)C21` (stereo in doubt) [BIM2b, 7-acetoxy-10,13-dimethyl-17-(6-methylheptan-2-yl)-2,3,4,7,8,9,10,11,12,13,14,15,16,17-tetradecahydro-1H-cyclopenta[a]phenanthren-3-yl 2,2-dimethyl-1,3-dioxolane-4-carboxylate], the “Compound BIM2b (μg/g of brain)” value is recorded as 12.5 μg/g of brain in data set [1] (Day D2), 7.1 μg/g of brain in data set [1] (Day D4), 11.7 μg/g of brain in data set [1] (Day D18) and 1.0 μg/g of brain in data set [1] (Day D22 (treatment stopped on D20)). Besides, the “percentage of BIM2b found in the brains relative to the total quantity ingested” value in data set [1] (on D18) came out at 0.013%. Also, in data set [1] (on D22, after stopping of the treatment on D20), the “drop in the content of BIM2b in the mouse brain” value is given as 91.5%. In addition, in data set [1] (treated healthy mice, oral), the “crossing of the blood-brain barrier (BBB)” value was “crosses the blood-brain barrier (BBB)”. Besides, the “hepatic or renal toxicity” value in the data set on beagle dogs [2] was “did not demonstrate hepatic or renal toxicity”. In addition, the “toxicity (conclusion)” value is recorded as “does not lead to any toxicity” with beagle dogs [2] (administered as BIM2b PO) and “does not entrain any toxicity” in the data set with wild-type mice [4] (oral). Besides, the “hepatic or renal toxicity (biological parameters)” value in the data set with wild-type mice [3] is listed as “did not demonstrate hepatic or renal toxicity”. The undesirable clinical effects result with wild-type mice [4] (twice a day, 5 times a week) is “did not give rise to undesirable clinical effects”; with beagle dogs [6], “did not cause undesirable clinical effects”. In addition, the “crossing of the BTB” value in data set [5] (dog) is reported as “crosses the BTB”. The “percentage by weight of BIM2b found in the whole tumour relative to the total quantity ingested” value in data set [5] (dog) was found to be 0.39%. Moreover, the “ratio of percentage in dog tumour to percentage in brains of healthy mice” value in data set [5] (21 days after stopping the treatment) is 30 times. For the same compound, the “survival of the GBM dog subject whose tumour was analysed” value in the data set with spontaneous gliomas amounted to 8 months.

Consider bleomycin, for which the “median survival for patients with GBM” value in the data set on GBM is on record as “do not improve the median survival”.

`O=P1(N(CCCl)CCCl)NCCCO1` (stereo not drawn) [cyclophosphamide]: in the data set with GBM, the “median survival for patients with GBM” value is recorded as “do not improve the median survival”.

On to `CN(C)C/C=C/C(=O)Nc1cc2c(Nc3ccc(F)c(Cl)c3)ncnc2cc1O[C@H]1CCOC1` [afatinib dimaleate], for which, in the data set on GBM, the “median survival for patients with GBM” value was “do not improve the median survival”.
